Results reported in patent US20230174608A1, “Polypeptide Derivative Having Dual Receptor Agonistic Action and Use Thereof” (TIANJIN INSTITUTE OF PHARMACEUTICAL RESEARCH CO., LTD., priority 2020, published 2023).
Where a SMILES comes first, the peptide text is derived from it.

Tests used:
GLP-1R = molecular target: T1, GLP-1R (Homo sapiens, UniProt P43220); test: GLP-1 receptor-mediated cAMP production in vitro; assay type: cell-based; settings: HEK293 cell line stably expressing GLP-1R
T1 construct: expressed in transfected cells
How it was run: (§1)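 HEK293 cells stably expressing human GLP-1R or GCGR are stimulated with compound for 30 min in the dark in serum-free medium with 0.5 mM IBMX, with test dilutions spanning 1 μM down to 10^−3 nM. cAMP is detected after a 60 min room-temperature reaction as the 665/615 nm ratio.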

GCGR = molecular target: T2, GCGR (Homo sapiens, UniProt P47871); test: GC receptor-mediated cAMP production in vitro; assay type: cell-based; settings: HEK293 cell line stably expressing GCGR
T2 construct: expressed in transfected cells
How it was run: as §1

[1] = test system: glucose loaded normal mice; test: Glucose loading test on normal mice after single administration; assay type: in vivo, Kunming mice
How it was run: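 Male Kunming mice (20-22 g), 5 per group, fasted 6 h, received compound or semaglutide at 30 nmol/kg or saline. Glucose 2.5 g/kg given intragastrically 60 min post-dose; blood glucose measured 30 min after glucose loading.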

[2] = test system: diet-induced obesity (DIO) mice; test: DIO model mice, weight after 2 weeks of administration; assay type: in vivo, C57BL/6N mice; settings: 30 nmol/kg s.c. once a day, 14 days
Description: Method: C57BL/6N mice were fed with H10060 high-fat diets to obtain diet-induced obesity (DIO) models, and mice in a control group (n=5) were fed with standard diets. One day before the first administration, the mice in the model group were randomly divided into 6 groups according to their weights (within a range of 40.5-50.5 g), i.e., a model control group, a positive control group, and test compound groups (dgc003, dgc004, dgc010, and dgc017), respectively, 5 mice in each group, which were administered once a day by subcutaneous injection. Saline was subcutaneously injected into each mouse in the blank control group and the model control group every day. The administration was performed for 14 days. The positive control drug and the test compounds were administered at a dose of 30 nmol/kg, and the administration volume for each group was 0.005 mL/g weight. The mice were weighed before each administration, and 72-h food intake was weighed every three days.

T1 sequence (P43220 24-463, species assumed): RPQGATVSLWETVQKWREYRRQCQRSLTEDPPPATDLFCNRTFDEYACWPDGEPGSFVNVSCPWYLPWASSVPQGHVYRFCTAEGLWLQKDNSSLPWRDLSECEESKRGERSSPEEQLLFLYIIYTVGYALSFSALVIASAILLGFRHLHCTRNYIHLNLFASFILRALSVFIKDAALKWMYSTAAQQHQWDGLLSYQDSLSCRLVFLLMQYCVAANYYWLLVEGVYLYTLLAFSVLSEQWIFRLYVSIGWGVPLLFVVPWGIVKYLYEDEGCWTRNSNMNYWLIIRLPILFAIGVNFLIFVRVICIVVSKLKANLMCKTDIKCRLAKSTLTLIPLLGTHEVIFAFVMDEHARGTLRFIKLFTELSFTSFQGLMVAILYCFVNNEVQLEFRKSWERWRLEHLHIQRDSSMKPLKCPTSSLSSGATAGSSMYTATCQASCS
T2 sequence (P47871 26-477, species assumed): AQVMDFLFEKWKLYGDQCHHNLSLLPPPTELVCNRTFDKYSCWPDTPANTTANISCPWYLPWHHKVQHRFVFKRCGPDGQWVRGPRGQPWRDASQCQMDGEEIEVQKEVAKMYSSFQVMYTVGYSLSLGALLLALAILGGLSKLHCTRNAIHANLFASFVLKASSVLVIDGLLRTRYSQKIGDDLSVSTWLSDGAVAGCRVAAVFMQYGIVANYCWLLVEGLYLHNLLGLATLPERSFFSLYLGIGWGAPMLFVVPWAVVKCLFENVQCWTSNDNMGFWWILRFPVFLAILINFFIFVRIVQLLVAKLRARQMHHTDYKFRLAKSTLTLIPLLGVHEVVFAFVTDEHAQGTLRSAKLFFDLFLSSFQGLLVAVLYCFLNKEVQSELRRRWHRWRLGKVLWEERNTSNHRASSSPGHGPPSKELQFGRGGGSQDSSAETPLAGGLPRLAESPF

CCCCCCCCCCCCCCCC(=O)N[C@@H](CCC(=O)NCCCC[C@H](NC(=O)[C@H](C)NC(=O)[C@H](C)NC(=O)[C@H](CCCCN)NC(=O)[C@H](CCC(=O)O)NC(=O)[C@H](CC(=O)O)NC(=O)[C@H](CC(C)C)NC(=O)[C@H](Cc1ccc(O)cc1)NC(=O)[C@H](CCCCN)NC(=O)[C@H](CO)NC(=O)[C@H](Cc1ccc(O)cc1)NC(=O)[C@H](CC(=O)O)NC(=O)[C@H](CO)NC(=O)[C@@H](NC(=O)[C@H](Cc1ccccc1)NC(=O)[C@@H](NC(=O)CNC(=O)[C@H](CCC(N)=O)NC(=O)C(C)(C)NC(=O)[C@@H](N)Cc1c[nH]cn1)[C@@H](C)O)[C@@H](C)O)C(=O)N[C@@H](CCC(=O)O)C(=O)N[C@@H](Cc1ccccc1)C(=O)N[C@H](C(=O)N[C@@H](C)C(=O)N[C@@H](Cc1c[nH]c2ccccc12)C(=O)N[C@@H](CC(C)C)C(=O)N[C@@H](CCC(=O)O)C(=O)NCC(=O)NCC(N)=O)[C@@H](C)CC)C(=O)O [dgc017] (HELM PEPTIDE1{H.[Aib].Q.G.T.F.T.S.D.Y.S.K.Y.L.D.E.K.A.A.K.E.F.I.A.W.L.E.G.G.[am]}|PEPTIDE2{[CCCCCCCCCCCCCCCC(=O)[*:2]].[gGlu]}$PEPTIDE1,PEPTIDE2,20:R3-2:R2$$$V2.0; N-terminus assumed)
EC50 (GLP-1R): 0.627 nM
EC50 (GCGR): 3.95 nM
Blood glucose reduction rate (%) ([1]; 30 nmol/kg single dose, after glucose loading, versus model control group): 39.06%
Blood glucose level after glucose loading ([1]; 30 nmol/kg single dose, glucose 2.5 g/kg intragastric 60 min after administration, measured 30 min after loading, n=5): 10.36 ± 1.87 mmol/L
Fasting blood glucose level ([1]; normal mice fasted 6 h, 30 nmol/kg group, n=5): 3.72 ± 0.37 mmol/L
Weight decreasing rate by the last administration [2]: 15.9%
